We go through five compounds from ChEMBL document CHEMBL1133799, “A disubstituted NAD+ analogue is a nanomolar inhibitor of trypanosomal glyceraldehyde-3-phosphate dehydrogenase” (Bioorg Med Chem Lett, 2001).

The term IC50 denotes the concentration needed to halve the response being measured. Higher therefore signals weaker potency.

The test system of one test is NIH3T3. Put plainly: Effective dose required against Trypanosoma cruzi amastigotes in 3T3 Fibroblasts. In kind it is functional. As to conditions: Mus musculus, read-out: ED50 (the source's name).
Test [1] in a line: Inhibitory concentration against Trypanosoma brucei glyceraldehyde-3-phosphate dehydrogenase (GAPDH).
A short description of test [2]: Inhibitory concentration against Trypanosoma cruzi glyceraldehyde-3-phosphate dehydrogenase (GAPDH).
Test [3] is described as follows: Inhibitory concentration against rabbit muscle glyceraldehyde-3-phosphate dehydrogenase (GAPDH). Set-up: species or system Oryctolagus cuniculus.
The subject of the next test is Trypanosoma brucei. Put plainly: Effective dose required against Trypanosoma brucei in bloodstream. In kind it is functional. To be noted: read-out: ED50 (the source's name).
Test [4] relates to Trypanosoma cruzi. Put plainly: Effective dose required against Trypanosoma cruzi amastigotes. To be noted: read-out: ED50 (the source's name).
Test [5] deals with glyceraldehyde-3-phosphate dehydrogenase (Leishmania mexicana). Put plainly: Inhibitory concentration against Leishmania mexicana glyceraldehyde-3-phosphate dehydrogenase (GAPDH).
Test [6] concerns Trypanosoma cruzi. The experiment in a line: Effective dose required against Trypanosoma cruzi amastigotes. As to conditions: read-out: ED50 (the source's name). This is another data set of the same source.
The target of test [7] is glyceraldehyde-3-phosphate dehydrogenase (Leishmania mexicana). Put plainly: Inhibitory concentration against Leishmania mexicana glyceraldehyde-3-phosphate dehydrogenase (GAPDH). The source holds these as a separate data set.

Regarding `COc1cccc(C(=O)N[C@@H]2[C@H](O)[C@@H](COP(=O)(O)O)O[C@H]2n2cnc3c(NCc4cccc5ccccc45)ncnc32)c1`, the EC50 with NIH3T3 is 90 µM; in the test on Trypanosoma brucei, 32 µM; in the test with Trypanosoma cruzi [4] it was 6 µM. Moreover, the IC50 in [1] is 7 µM; in test [2], 5 µM; in [3] it was > 100 µM; in test [5] it was 2 µM.

For the compound `NC(=O)c1ccc[n+]([C@@H]2O[C@H](COP(=O)([O-])O)[C@@H](O)[C@H]2O)c1` [BETANMN], the IC50 in test [3] and in test [5] was > 500 µM each time.

On to `COc1cccc(C(=O)N[C@@H]2[C@H](O)[C@@H](CO)O[C@H]2n2cnc3c(NCc4cccc5ccccc45)ncnc32)c1`, for which the EC50 in the test with NIH3T3 was > 50 µM; in the test with Trypanosoma brucei, 30 µM; with Trypanosoma cruzi [6] it was 20 µM. The IC50 in test [1] is 25 µM; in [2], 12 µM; in [3] it was > 50 µM; in test [7], 6 µM.

For `O=C(Cn1ccnc1[N+](=O)[O-])NCc1ccccc1` [BENZNIDAZOLE], in the test on NIH3T3, the EC50 was > 50 µM.

For `N=C(N)c1ccc(OCCCCCOc2ccc(C(=N)N)cc2)cc1` [PENTAMIDINE], the EC50 in the test with Trypanosoma brucei stood at 0.008 µM.
